In ChEMBL document CHEMBL3853353, “Identification and optimization of a new series of anti-tubercular quinazolinones” (Bioorg Med Chem Lett, 2016):
≈ marks a conversion by molar mass, not a printed value.

Experiments:
[1] = Lipophilicity, log P of compound; settings: octanol/water
[2] = test system: Mycobacterium tuberculosis; experiment: Antimycobacterial activity against Mycobacterium tuberculosis H37Rv incubated for 5 days by Bactiter-Glo assay; type: functional; settings: 120 h
[3] = test system: Mycobacterium tuberculosis; experiment: Ratio of MIC80 for Mycobacterium tuberculosis H37Rv in presence of 25% human serum to MIC80 for Mycobacterium tuberculosis H37Rv; type: functional
[4] = Cytotoxicity against human HepG2 cells assessed as reduction in cell viability after 40 hrs by Celltiter-Glo assay
[5] = test system: Mycobacterium tuberculosis; experiment: Antimycobacterial activity against Mycobacterium tuberculosis H37Rv incubated for 5 days in presence of 25% human serum by Bactiter-Glo assay; type: functional; settings: 120 h

Row | SMILES | logP [1] | MIC80 [2] | Ratio [3] | IC50 at 40 h ([4]; HepG2 cells) | MIC80 [5] | IC50 at 40 h ([4]; hepg2)
1 | COCCOc1ccc(CCNc2nc3cc(Cl)ccc3c(=O)n2C)cc1 | 3.86 | 0.08 µM (≈ 0.031 µg/mL) | 8 | > 30 µM | > 10 µM | –
2 | COc1ccc(CCCNc2nc3cc(Cl)ccc3c(=O)n2C)cc1 | – | 5.8 µM (≈ 2.08 µg/mL) | >10 | 16.8 µM | – | –
3 | Cn1c(NCCc2ccc(-c3ccccc3)cn2)nc2cc(Cl)ccc2c1=O | – | 0.004 µM (≈ 0.00156 µg/mL) | 8 | 18.3 µM | – | –
4 | COc1ccc(CCNc2nc3cc(Cl)ccc3c(=O)[nH]2)cc1 | – | 6.3 µM (≈ 2.08 µg/mL) | >10 | – | – | –
5 | COc1ccc(CCNc2nc3cc(C#N)ccc3c(=O)n2C)cc1 | – | 0.48 µM (≈ 0.161 µg/mL) | >10 | 12.7 µM | – | –
6 | COc1ccc(CCNc2nc3ccccc3c(=O)n2C)cc1 | – | 0.24 µM (≈ 0.0742 µg/mL) | >10 | > 30 µM | – | –
7 | COc1ccc(CCN(C)c2nc3cc(Cl)ccc3c(=O)n2C)cc1 | – | 11.2 µM (≈ 4.01 µg/mL) | >10 | > 30 µM | – | –
8 | Cn1c(NCCc2ccc(-c3ccc(Cl)cc3)nn2)nc2cc(Cl)ccc2c1=O | 4.67 | 0.03 µM (≈ 0.0128 µg/mL) | 8 | > 30 µM | 3.32 µM | –
9 | COc1ccc(CCNc2nc3ccc(Cl)cc3c(=O)n2C)cc1 | – | 0.9 µM (≈ 0.309 µg/mL) | >10 | 26.1 µM | – | –
10 | COc1ccc(CCNc2nc3cc(N(C)C)ccc3c(=O)n2C)cc1 | 1.94 | 0.11 µM (≈ 0.0388 µg/mL) | >10 | – | – | –
11 | COc1ccc(-c2ccc(CCNc3nc4cc(Cl)ccc4c(=O)n3C)cc2)cn1 | 4.68 | 0.09 µM (≈ 0.0379 µg/mL) | 8 | 11.3 µM | – | –
12 | COc1ccc(CCNc2nc3cc(F)ccc3c(=O)n2C)cc1 | – | 0.2 µM (≈ 0.0655 µg/mL) | >10 | > 30 µM | – | –
13 | Cn1c(NCCc2ccc(-c3ccccn3)cc2)nc2cc(Cl)ccc2c1=O | – | 0.027 µM (≈ 0.0106 µg/mL) | – | – | 25.2 µM | 16.5 µM
14 | COc1ccc(-c2ccc(CCNc3nc4cc(Cl)ccc4c(=O)n3C)cc2)nc1 | 4.67 | 0.06 µM (≈ 0.0253 µg/mL) | 8 | 11.9 µM | – | –
15 | Cn1c(NCCc2ccc(-c3ccccc3)nn2)nc2cc(Cl)ccc2c1=O | – | 1.12 µM (≈ 0.439 µg/mL) | 8 | 15.1 µM | – | –
16 | Cn1c(NCCc2ccc(-n3cccn3)cc2)nc2cc(Cl)ccc2c1=O | – | 0.02 µM (≈ 0.0076 µg/mL) | – | – | 8.56 µM | 17.3 µM
17 | COc1ccc(-c2ccc(CCNc3nc4cc(Cl)ccc4c(=O)n3C)nn2)cc1 | – | 0.74 µM (≈ 0.312 µg/mL) | 8 | – | – | –
18 | COc1ccc(CCNc2nc3cc(N)ccc3c(=O)n2C)cc1 | 1.94 | 0.04 µM (≈ 0.013 µg/mL) | 5 | – | 0.198 µM | –
19 | COc1ccc(CCNc2nc3cc(Cl)c(F)cc3c(=O)n2C)cc1 | – | 0.03 µM (≈ 0.0109 µg/mL) | >10 | > 30 µM | – | –
20 | COc1ccc(-c2ccc(CCNc3nc4cc(Cl)ccc4c(=O)n3C)nc2)cc1 | 4.03 | 0.32 µM (≈ 0.135 µg/mL) | 8 | 14.7 µM | – | –
21 | COc1ccc(NCc2nc3cc(Cl)ccc3c(=O)n2C)cc1 | – | 19.9 µM (≈ 6.56 µg/mL) | >10 | 15.7 µM | – | –
22 | Cn1c(NCCc2ccc(-c3ncccn3)cc2)nc2cc(Cl)ccc2c1=O | – | 0.079 µM (≈ 0.031 µg/mL) | – | – | 4.06 µM | 25.4 µM
23 | Cn1c(NCCc2ccc(Oc3ccc(Cl)cn3)cc2)nc2cc(Cl)ccc2c1=O | – | 0.02 µM (≈ 0.00883 µg/mL) | – | – | 1.76 µM | 13 µM
24 | CCn1c(NCCc2ccc(OC)cc2)nc2cc(Cl)ccc2c1=O | – | 1.1 µM (≈ 0.394 µg/mL) | >10 | 21 µM | – | –
25 | COc1ccc(-c2ccc(CCNc3nc4cc(Cl)ccc4c(=O)n3C)nc2)cn1 | – | 0.31 µM (≈ 0.131 µg/mL) | 8 | 24.1 µM | > 15 µM | –
26 | Cn1c(NCCc2ccc(Oc3ccccn3)cc2)nc2cc(Cl)ccc2c1=O | – | 0.06 µM (≈ 0.0244 µg/mL) | 8 | 12.1 µM | 7.37 µM | –
